Tests used:
[1] = tested on: primary human intestinal organoids; format: cell-based; conditions: TNFα 40 ng/mL, 10 μM, 18 hours
Protocol: (§1) To measure the effect of (R)-3-HB on inflammation of primary human intestinal organoids, healthy large intestine samples of a donor were cultured for 8 weeks in vitro prior to experiments. Method as used in Hannan et al., Stem Cell Reports. Vol. 1, 293-306 Oct. 15, 2013.
1) To induce inflammation, organoids were treated with TNFα (40 ng/mL) alone or in combination with butyrate (10 μM), (R)-3-HB (10 μM), or butyrate and (R)-3-HB for 18 hours. Subsequently, cells were lysed and RNA was isolated for cDNA synthesis and measurement of mRNA expression levels of inflammation factors, NF-κB and TNFα, by qPCR.

[2] = target: HCA2 receptor (gpr109A) (Mus musculus, UniProt Q9EP66); conditions: read-out: EC50 of binding to HCA2 receptor; cited from earlier work
[3] = tested on: primary human intestinal organoids; format: cell-based
Protocol: as §1
2) To induce inflammation, organoids were treated with TNF-α (40 ng/mL) alone or in combination with (R)-3-HB (sodium salts at 10 μM) for 18 hours. Subsequently, cells were lysed and RNA was isolated for cDNA synthesis and mRNA expression levels of a panel of inflammation factors was measured by qPCR.

[4] = tested on: primary human intestinal organoids; format: cell-based; conditions: TNF-α 60 ng/mL, 24 hours
Protocol: 3) The effect of (R)-3-HB and the related SCFA butyrate on the inflammatory response exerted by primary human intestinal organoids upon co-incubation with TNF-α as inflammatory stimulus was measured. Primary human intestinal organoids were cultured for 8 weeks prior to experiments as described in Hannan et al. (2013) Stem Cell Reports.
To induce inflammation, organoids were treated with 60 ng/mL TNF-α alone or in combination with different concentrations of the sodium salts of (R)-3-HB or butyrate for 24 hours. Subsequently, cells were lysed and RNA was isolated using the RNeasy mini kit (Qiagen Ltd, Germany) for synthesis of cDNA. mRNA expression levels of IL-23 was measured by qPCR using the SensiMix SYBR low-ROX kit (Bioline, UK).
Values were normalized versus untreated control and graphs show the difference of mRNA levels measured in organoids treated with TNF-α alone (set as 0) and those treated with TNF-α and butyrate or (R)-3-HB.

[5] = target: NLRP3 inflammasome (Homo sapiens, UniProt Q96P20); conditions: cited from earlier work
[6] = target: hydroxy-carboxylic acid receptor 2 (HCA2, GPR109A) (Mus musculus, UniProt Q9EP66); conditions: in vivo; cited from earlier work
[7] = tested on: histone acetylation; conditions: cited from earlier work
[8] = TNF-α 40 ng/mL, sodium salt 10 μM, 18 hours

NLRP3 inflammasome, sequence (Q96P20 whole entry): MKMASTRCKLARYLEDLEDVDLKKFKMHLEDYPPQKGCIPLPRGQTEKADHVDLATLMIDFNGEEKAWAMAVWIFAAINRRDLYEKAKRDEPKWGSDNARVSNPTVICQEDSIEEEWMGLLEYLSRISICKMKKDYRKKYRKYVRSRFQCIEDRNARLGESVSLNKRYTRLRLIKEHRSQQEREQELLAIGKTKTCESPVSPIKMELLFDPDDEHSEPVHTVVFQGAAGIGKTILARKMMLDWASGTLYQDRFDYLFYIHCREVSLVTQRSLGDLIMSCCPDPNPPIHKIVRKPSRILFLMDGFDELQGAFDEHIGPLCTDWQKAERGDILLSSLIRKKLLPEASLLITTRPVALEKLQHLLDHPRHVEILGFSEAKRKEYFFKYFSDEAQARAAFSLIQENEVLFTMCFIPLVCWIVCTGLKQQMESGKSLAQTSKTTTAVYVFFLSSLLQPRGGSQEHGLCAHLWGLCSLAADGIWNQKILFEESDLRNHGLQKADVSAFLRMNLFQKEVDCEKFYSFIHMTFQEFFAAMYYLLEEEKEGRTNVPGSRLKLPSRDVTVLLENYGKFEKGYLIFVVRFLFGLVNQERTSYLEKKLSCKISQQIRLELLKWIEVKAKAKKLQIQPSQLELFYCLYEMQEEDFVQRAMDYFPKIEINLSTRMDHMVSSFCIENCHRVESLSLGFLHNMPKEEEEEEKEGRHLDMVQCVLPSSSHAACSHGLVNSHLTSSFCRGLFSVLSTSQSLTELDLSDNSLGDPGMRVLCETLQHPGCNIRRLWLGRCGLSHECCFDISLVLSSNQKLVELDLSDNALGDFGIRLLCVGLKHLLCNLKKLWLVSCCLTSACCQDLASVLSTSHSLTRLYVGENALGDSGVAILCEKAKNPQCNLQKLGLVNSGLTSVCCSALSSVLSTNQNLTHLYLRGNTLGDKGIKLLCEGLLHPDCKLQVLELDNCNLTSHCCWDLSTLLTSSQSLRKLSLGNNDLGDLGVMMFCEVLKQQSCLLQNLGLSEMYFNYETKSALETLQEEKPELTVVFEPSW
hydroxy-carboxylic acid receptor 2 (HCA2, GPR109A), sequence (Q9EP66 whole entry): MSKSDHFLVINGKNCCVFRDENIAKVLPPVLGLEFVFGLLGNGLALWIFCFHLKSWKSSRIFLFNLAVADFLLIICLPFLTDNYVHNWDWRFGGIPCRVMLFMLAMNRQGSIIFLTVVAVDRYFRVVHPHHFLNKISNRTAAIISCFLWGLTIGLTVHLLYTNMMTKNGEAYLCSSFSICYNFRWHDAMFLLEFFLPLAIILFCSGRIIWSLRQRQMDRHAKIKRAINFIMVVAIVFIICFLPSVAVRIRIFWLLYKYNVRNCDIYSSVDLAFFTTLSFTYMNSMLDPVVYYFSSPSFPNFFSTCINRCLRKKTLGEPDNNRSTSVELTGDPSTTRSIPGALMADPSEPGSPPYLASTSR
HCA2 receptor (gpr109A), sequence (Q9EP66 whole entry): as above

Compound | NF-κB mRNA expression [1] | TNF-α mRNA expression [1] | EC50 [2] | IL-1β mRNA expression vs TNF-α alone [3, 8] | IL-6 mRNA expression vs TNF-α alone [3, 8] | IL-10 mRNA expression vs TNF-α alone [3, 8] | IL-23 mRNA expression vs TNF-α alone [3, 8] | NF-κβ mRNA expression vs TNF-α alone [3, 8] | TGF-β1 mRNA expression vs TNF-α alone [3, 8] | TNF-α mRNA expression vs TNF-α alone [3, 8] | effect on pro-inflammatory regulators of IBD compared with butyrate ([3]; data not shown) | effect on protective regulators of intestinal inflammation compared with butyrate ([3]; data not shown) | impact on IL-23 expression compared with butyrate ([4]; 10-100 μM) | concentrations effective at reducing expression of IL-23 ([4]; sodium salt) | concentration that reduced NLRP3 inflammasome activity [5] | concentration associated with neuroprotection [6] | concentration that increases histone acetylation in a dose dependent manner [7]
C[C@@H](O)CC(=O)O [(R)-3-HB, (R)-3-hydroxybutyrate] | decreased | decreased | 318 µM | decreased | decreased | increased | decreased | decreased | increased | decreased | greater reducing effect than butyrate | greater inducing effect | greater reducing impact | 10 to 100 µM | – | – | –
CC(O)CC(=O)O (centres unmarked) [3-HB, 3-hydroxybutyric acid] | – | – | – | – | – | – | – | – | – | – | – | – | – | – | 2 to 10 mM | 600-1,000 μM | 1 to 2 mM

From patent US20210023030A1 (priority 2018, published 2021)
